Values joined by “and” are separate entries in the source; they are usually repeats but may differ in a detail not shown here. Identical values can stand only once. “Also recorded” adds a separate entry of the source. Like-named read-outs stand apart in the source and are kept apart here. Each block holds one compound with its values, some of them ahead of it.
How the values were obtained:
Notch signalling = test: Notch reporter assay (12xCSL firefly luciferase / renilla luciferase, HEK293T Notch1ΔE reporter cell line clone #A1-11); format: cell-based; parameters: AUC Notch: scale not given here; conditions: for activity: 1,25µM; for Bottom (Emax): Emax indicated independent from assay constraints, in % (unit assumed); for AUC Notch: area under the 14-point dose-response curve; for AUC 9p Notch reporter assay: 9p dose response; for AUC 9p Notch reporter assay / AUC 14p Notch reporter assay: AUCs averaged when replicates available; for 14p Notch reporter assay averaged IC50s (log): log10 of averaged IC50; for Notch assay: overview in comparison to compound C, Supplemental Fig. 9; for reporter signal in % of DMSO: inhibitor controls, Supplemental Fig. 2A
Method in brief: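 Compounds at two-fold concentration in 10 µl medium were brought to one-fold by adding 10 µl holding 4000 Notch reporter cells (clone #A1-11) per well of a 384-well plate. After 24 h, Promega dual-GLO firefly and renilla luciferase were read on a SpectraMaxi3. Dose-response curves were fitted with a log(inhibitor) vs. response variable-slope model.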

γ-secretase complex = γ-secretase complex (Homo sapiens, UniProt P49768); test: APP-C99 counter assay (GSI reporter assay); format: cell-based; parameters: AUC APP: scale not given here; conditions: for Hill-slope: bottom constrained to Emax of positive control LY-411575; for remaining activity at 10 µM / remaining activity at 25 µM / remaining activity at […]: 24 h, APP-C99 counter assay, read-out: 3p-DR in % of DMSO counter; for remaining activity at […]: 1,25µM; for AUC APP: area under the 14-point dose-response curve, replicates averaged; for AUC 9p APP-counter assay / AUC. 14p APP-counter assay: AUCs averaged when replicates available; for Bottom (Emax): Emax indicated independent from assay constraints; for APP assay: overview in comparison to compound C, Supplemental Fig. 9
Method in brief: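 Cells transfected with APP-C99 firefly luciferase reporter plus renilla normalization plasmid, seeded 24 h later onto compound plates and cultured 24 h. Dual luciferase read in triplicate per concentration; IC50 from variable-slope log(inhibitor) fit, with AUC also calculated from dose–response curves.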

[1] = Homo sapiens, HEK-293T, 10 µM, primary screen, 24 h, unit from Fig. 2 legend, read-out: Primary screen at 10 µM (Notch reporter signal)
[2] = Homo sapiens, HEK-293T, 10 µM, three-dose confirmation screen, unit from Fig. 2 legend, read-out: Hit confirmation at 10 µM (Notch reporter signal)
[3] = Homo sapiens, HEK-293T, 10µM, 3-point DR confirmation screen, Notch reporter assay, read-out: inhibitor ratio in % of DMSO in 3 point DR
[4] = Homo sapiens, HEK-293T, 10 µM, sheet conf vs counter 10 µM, same values as 3-point DR confirmation screen, read-out: Confirmation screen
[5] = Homo sapiens, HEK-293T, 25µM, 3-point DR confirmation screen, Notch reporter assay, read-out: inhibitor ratio in % of DMSO in 3 point DR
[6] = Homo sapiens, HEK-293T, 25 µM, Notch reporter 3-point dose-confirmation assay, sheet "conf vs counter 25 µM", read-out: Confirmation screen
[7] = Homo sapiens, HEK-293T, 3-point DR confirmation screen, Notch reporter assay, read-out: inhibitor ratio in % of DMSO in 3 point DR
[8] = Homo sapiens, HEK-293T, 14p Notch assay DR, bottom constrained to Emax of positive control DAPT, read-out: approximated IC50
[9] = Homo sapiens, HEK-293T, 14p Notch assay DR, log10 value, bottom constrained to Emax of positive control DAPT, read-out: approximated LogIC50 (converted)
[10] = 14-point, unit inferred, replicates averaged, read-out: approxiated IC50s 14p Notch reporter assay
[11] = 14p Notch assay DR, log10 value, Notch inhibitor controls, no bottom constraint named
[12] = 14p dose response, single replicates, read-out: approximated IC50s 14p Notch reporter assay

Hill-slope (γ-secretase complex; 14p APP assay DR): -0.0118 | remaining activity at 10 µM (γ-secretase complex): 152% | remaining activity at 25 µM (γ-secretase complex): 184% | remaining activity at […] (γ-secretase complex): 147%
SMILES: CC(=O)N1CCc2sccc2C1c1ccccc1NCc1ccoc1 (centres unmarked) [CBK286432]
activity at 10 µM (Notch signalling; [1]): 37.6% | activity at 10 µM (Notch signalling; [2]): 57.2% | activity at 10 µM (Notch signalling; [3]): 57.2% | activity at 10 µM (Notch signalling; [4]): 57.2% | activity at 25 µM (Notch signalling; [5]): 45.5% | activity at 25 µM (Notch signalling; [6]): 45.5% | activity (Notch signalling; [7]): 88.7%

IC50 (Notch signalling; [8]): 5400 nM | IC50 (Notch signalling; [9]): 5010 nM | Hill-slope (γ-secretase complex; 14p APP assay DR): -6.4 | remaining activity at 10 µM (γ-secretase complex): 120% | remaining activity at 25 µM (γ-secretase complex): 78.7% | remaining activity at […] (γ-secretase complex): 112% | AUC APP (γ-secretase complex): 443.8
SMILES: COc1ccc(C(=O)N2Cc3nc[nH]c3C[C@H]2c2nc(-c3ccc(OC)cc3)no2)cc1 [CBK288966]
Bottom (Emax) (Notch signalling; 14p Notch assay DR): 57.5 | activity at 10 µM (Notch signalling; [1]): 57.1% | activity at 10 µM (Notch signalling; [2]): 58.5% | activity at 10 µM (Notch signalling; [3]): 58.5% | activity at 10 µM (Notch signalling; [4]): 58.5% | activity at 25 µM (Notch signalling; [5]): 61.1% | activity at 25 µM (Notch signalling; [6]): 61.1% | activity (Notch signalling; [7]): 83.6% | AUC Notch (Notch signalling; replicates averaged): 299.0

IC50 (Notch signalling; [10]): 1.7 nM | IC50 (Notch signalling; [12]): 2 nM and 1.5 nM | 14p Notch reporter assay averaged IC50s (log) (Notch signalling; 14p dose response): -8.8 | Hill-Slope 9p APP counter assay averaged (γ-secretase complex; 9p dose response): -1.7 | AUC 9p APP-counter assay (γ-secretase complex; 9p dose response): 2.30E+02 | IC50 (γ-secretase complex; 9p dose response, averaged, read-out: 9p APP counter assay averaged IC50s): 17 nM | IC50 (γ-secretase complex; 9p dose response, read-out: approximated IC50s 9p APP counter assay): 17 nM | IC50 (γ-secretase complex; 14-point, unit inferred, some fits outside of tested concentration range, read-out: approximated IC50s 14p APP-counter assay): 21 nM | Bottom (Emax) (γ-secretase complex; 14p APP assay DR): 40.6 and 48.3 | IC50 (γ-secretase complex; 14p APP assay DR, Notch inhibitor controls, no bottom constraint named, read-out: approximated IC50): 16 nM and 27 nM | approximated LogIC50 [M] (γ-secretase complex; 14p APP assay DR, log10 value, Notch inhibitor controls, no bottom constraint named): -7.8 M and -7.6 M | AUC. 14p APP-counter assay (γ-secretase complex; 14p dose response): 4.62E+02 | 14p APP counter assay averaged IC50s (log) (γ-secretase complex; 14p dose response, log10 of averaged IC50): -7.7 | AUC APP (γ-secretase complex): 461.6 | APP assay (γ-secretase complex): higher potency
SMILES: C[C@H](NC(=O)Cc1cc(F)cc(F)c1)C(=O)N[C@@H]1C(=O)N(C)c2ccccc2-c2ccccc21 [YO-01027, reference compound]
AUC 9p Notch reporter assay (Notch signalling): 1.99E+02 | Bottom (Emax) (Notch signalling; 14p Notch assay DR): 43.4 and 46.0 | approximated LogIC50 [M] (Notch signalling; [11]): -8.7 M | AUC 14p Notch reporter assay (Notch signalling; 14p dose response): 3.83E+02 | AUC Notch (Notch signalling; replicates averaged): 383.0 | Notch assay (Notch signalling): higher potency

SMILES: C[C@H](NC(=O)[C@@H](O)c1cc(F)cc(F)c1)C(=O)N[C@@H]1C(=O)N(C)c2ccccc2-c2ccccc21 [LY-411575, reference compound]
reporter signal in % of DMSO (Notch signalling; 10 µM): 46% | AUC 9p Notch reporter assay (Notch signalling): 1.91E+02 | IC50 (Notch signalling; [10]): 0.88 nM | Bottom (Emax) (Notch signalling; 14p Notch assay DR): 46.0 and 46.9 | Hill-slope (Notch signalling; 14p Notch assay DR, Notch inhibitor controls, no bottom constraint named): -1.3 | approximated LogIC50 [M] (Notch signalling; [11]): -9.0 M | Hill-Slope 14p Notch reporter assay (Notch signalling; 14p dose response): -1.3 | IC50 (Notch signalling; [12]): 0.86 nM and 0.9 nM | AUC 14p Notch reporter assay (Notch signalling; 14p dose response): 3.73E+02 | 14p Notch reporter assay averaged IC50s (log) (Notch signalling; 14p dose response): -9.1 | AUC Notch (Notch signalling; replicates averaged): 373.0 | Notch assay (Notch signalling): highest potency; also recorded: highest activity | Hill-Slope 9p APP counter assay averaged (γ-secretase complex; 9p dose response): -1.0 | AUC 9p APP-counter assay (γ-secretase complex; 9p dose response): 1.95E+02 | Bottom (Emax) (γ-secretase complex; 14p APP assay DR): 44.6 and 46.0 | AUC. 14p APP-counter assay (γ-secretase complex; 14p dose response): 4.29E+02 | AUC APP (γ-secretase complex): 428.9 | APP assay (γ-secretase complex): highest potency

Hill-slope (γ-secretase complex; 14p APP assay DR): 0.00761 | AUC APP (γ-secretase complex): 491.7
SMILES: c1ccc(Nc2nc(-c3ccc(Oc4ccccc4)cc3)cn3ccnc23)cc1 [CBK066406]
Bottom (Emax) (Notch signalling; 14p Notch assay DR): 88.8 | AUC Notch (Notch signalling; replicates averaged): 367.0

APP assay (γ-secretase complex): active, potency n.d.
SMILES: CC(C)[C@H](O)C(=O)N[C@@H](C)C(=O)N[C@@H]1C(=O)N(C)CCc2ccccc21 [LY-450139, Semagacestat, reference compound]
reporter signal in % of DMSO (Notch signalling; 10 µM): 52% | Notch assay (Notch signalling): active, potency n.d.

IC50 (Notch signalling; Homo sapiens, HEK-293T, 14-point dose-response, Fig. 4, read-out: approximated IC50, Notch reporter assay): > 40000 nM | IC50 (Notch signalling; [8]): > 40000 nM | IC50 (Notch signalling; [9]): > 40000 nM | Hill-slope (γ-secretase complex; 14p APP assay DR): -0.00928 | AUC APP (γ-secretase complex): 674.5
SMILES: Cc1cc(O)n(-c2nc3ccccc3s2)n1 [CBK007453]
Bottom (Emax) (Notch signalling; 14p Notch assay DR): 95.0 | AUC Notch (Notch signalling; replicates averaged): 628.0

Source: paper PMC13242511, “Disrupting Notch signalling by a small molecule inhibiting dihydroorotate dehydrogenase activity” (Scientific Reports, 2026)
